Measurements from patent publication US20250098679A1, “HERBICIDAL PYRIDONE DERIVATIVES” (SYNGENTA CROP PROTECTION AG, priority 2021, published 2025).

Columns and labels:
Format in all cases: in vivo
[1] = tested on: Echinochloa crus-galli (ECHCG); assay: Pre-emergence Test, Echinochloa crus-galli (ECHCG); details: 1000 g/ha, evaluated after 13 days
[2] = tested on: Amaranthus palmeri (AMAPA); assay: Post-emergence Test, Amaranthus palmeri (AMAPA); set-up: key: 5=81-100%, 4=61-80%, 3=41-60%, 2=21-40%, 1=0-20% damage; details: evaluated after 13 days
Outline: (§1)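 Scores are percentage plant damage on a 1–5 scale (1=0-20%, 2=21-40%, 3=41-60%, 4=61-80%, 5=81-100%), read 13 days after treatment. Pots received a spray at 1000 g/ha unless otherwise stated, formulated in acetone/water (50:50) containing 0.5% Tween 20.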

[3] = tested on: Echinochloa crus-galli (ECHCG); assay: Post-emergence Test, Echinochloa crus-galli (ECHCG); set-up: key to percentage damage caused to the plant, ECHCG (five-point scale): 5=81-100%, 4=61-80%, 3=41-60%, 2=21-40%, 1=0-20% damage; details: evaluated after 13 days
Outline: as §1

Setaria faberi (SETFA) [4] = assay: Post-emergence Test, Setaria faberi (SETFA); set-up: key to percentage damage caused to the plant, SETFA (five-point scale): 5=81-100%, 4=61-80%, 3=41-60%, 2=21-40%, 1=0-20% damage; details: evaluated after 13 days
Outline: as §1

Zea mays (ZEAMX) [5] = assay: Pre-emergence Test, Zea mays (ZEAMX); details: 1000 g/ha, evaluated after 13 days
[6] = tested on: Amaranthus retoflexus (AMARE); assay: Post-emergence Test, Amaranthus retoflexus (AMARE); set-up: key to percentage damage caused to the plant, AMARE (five-point scale): 5=81-100%, 4=61-80%, 3=41-60%, 2=21-40%, 1=0-20% damage; details: evaluated after 13 days
Outline: as §1

Setaria faberi (SETFA) [7] = assay: Pre-emergence Test, Setaria faberi (SETFA); details: 1000 g/ha, evaluated after 13 days
[8] = tested on: Ipomoea hederacea (IPOHE); assay: Pre-emergence Test, Ipomoea hederacea (IPOHE); details: 1000 g/ha, evaluated after 13 days
[9] = tested on: Amaranthus retoflexus (AMARE); assay: Pre-emergence Test, Amaranthus retoflexus (AMARE); details: 1000 g/ha, evaluated after 13 days
[10] = tested on: Amaranthus palmeri (AMAPA); assay: Pre-emergence Test, Amaranthus palmeri (AMAPA); details: 1000 g/ha, evaluated after 13 days
Zea mays (ZEAMX) [11] = assay: Post-emergence Test, Zea mays (ZEAMX); set-up: key to percentage damage caused to the plant, ZEAMX (five-point scale): 5=81-100%, 4=61-80%, 3=41-60%, 2=21-40%, 1=0-20% damage; details: evaluated after 13 days
Outline: as §1

[12] = tested on: Ipomoea hederacea (IPOHE); assay: Post-emergence Test, Ipomoea hederacea (IPOHE); set-up: key to percentage damage caused to the plant, IPOHE (five-point scale): 5=81-100%, 4=61-80%, 3=41-60%, 2=21-40%, 1=0-20% damage; details: evaluated after 13 days
Outline: as §1

## CCn1c(Cn2cnc(OC)n2)cc(=O)c(C(=O)O)c1-c1ccc(Cl)c(Cl)c1 [Compound 44, 2-(3,4-dichlorophenyl)-1-ethyl-6-[(3-methoxy-1,2,4-triazol-1-yl)methyl]-4-oxo-pyridine-3-carboxylic acid]
[1]
  Pre-emergence Test ECHCG, percentage damage caused to the plant (five-point scale): 2 (2=21-40%)
[2]; 1000 g/ha
  percentage damage caused to the plant, AMAPA (five-point scale): 3 (3=41-60%)
[3]; 1000 g/ha
  percentage damage caused to the plant, ECHCG (five-point scale): 1 (1=0-20%)
Setaria faberi (SETFA) [4]; 1000 g/ha
  percentage damage caused to the plant, SETFA (five-point scale): 1 (1=0-20%)
Zea mays (ZEAMX) [5]
  Pre-emergence Test ZEAMX, percentage damage caused to the plant (five-point scale): 0
[6]; 1000 g/ha
  percentage damage caused to the plant, AMARE (five-point scale): 0
Setaria faberi (SETFA) [7]
  Pre-emergence Test SETFA, percentage damage caused to the plant (five-point scale): 1 (1=0-20%)
[8]
  Pre-emergence Test IPOHE, percentage damage caused to the plant (five-point scale): 1 (1=0-20%)
[9]
  Pre-emergence Test AMARE, percentage damage caused to the plant (five-point scale): 2 (2=21-40%)
[10]
  Pre-emergence Test AMAPA, percentage damage caused to the plant (five-point scale): 3 (3=41-60%)
Zea mays (ZEAMX) [11]; 1000 g/ha
  percentage damage caused to the plant, ZEAMX (five-point scale): 1 (1=0-20%)
[12]; 1000 g/ha
  percentage damage caused to the plant, IPOHE (five-point scale): 2 (2=21-40%)

## CCn1c(Cn2ccnn2)cc(=O)c(C(=O)O)c1-c1ccc(Cl)c(Cl)c1 [Compound 45, 2-(3,4-dichlorophenyl)-1-ethyl-4-oxo-6-(triazol-1-ylmethyl)pyridine-3-carboxylic acid]
[1]
  Pre-emergence Test ECHCG, percentage damage caused to the plant (five-point scale): 4 (4=61-80%)
[2]; 1000 g/ha
  percentage damage caused to the plant, AMAPA (five-point scale): 1 (1=0-20%)
[3]; 1000 g/ha
  percentage damage caused to the plant, ECHCG (five-point scale): 1 (1=0-20%)
Setaria faberi (SETFA) [4]; 1000 g/ha
  percentage damage caused to the plant, SETFA (five-point scale): 1 (1=0-20%)
Zea mays (ZEAMX) [5]
  Pre-emergence Test ZEAMX, percentage damage caused to the plant (five-point scale): 0
[6]; 1000 g/ha
  percentage damage caused to the plant, AMARE (five-point scale): 0
Setaria faberi (SETFA) [7]
  Pre-emergence Test SETFA, percentage damage caused to the plant (five-point scale): 1 (1=0-20%)
[8]
  Pre-emergence Test IPOHE, percentage damage caused to the plant (five-point scale): 0
[9]
  Pre-emergence Test AMARE, percentage damage caused to the plant (five-point scale): 0
[10]
  Pre-emergence Test AMAPA, percentage damage caused to the plant (five-point scale): 1 (1=0-20%)
Zea mays (ZEAMX) [11]; 1000 g/ha
  percentage damage caused to the plant, ZEAMX (five-point scale): 0
[12]; 1000 g/ha
  percentage damage caused to the plant, IPOHE (five-point scale): 0

## CCn1c(Cn2nccn2)cc(=O)c(C(=O)O)c1-c1ccc(Cl)c(Cl)c1 [Compound 48, 2-(3,4-dichlorophenyl)-1-ethyl-4-oxo-6-(triazol-2-ylmethyl)pyridine-3-carboxylic acid]
[1]
  Pre-emergence Test ECHCG, percentage damage caused to the plant (five-point scale): 5 (5=81-100%)
[2]; 250 g/Ha
  percentage damage caused to the plant, AMAPA (five-point scale): 1 (1=0-20%)
[2]; 1000 g/ha
  percentage damage caused to the plant, AMAPA (five-point scale): 3 (3=41-60%)
[3]; 250 g/Ha
  percentage damage caused to the plant, ECHCG (five-point scale): 3 (3=41-60%)
[3]; 1000 g/ha
  percentage damage caused to the plant, ECHCG (five-point scale): 5 (5=81-100%)
Setaria faberi (SETFA) [4]; 250 g/Ha
  percentage damage caused to the plant, SETFA (five-point scale): 4 (4=61-80%)
Setaria faberi (SETFA) [4]; 1000 g/ha
  percentage damage caused to the plant, SETFA (five-point scale): 4 (4=61-80%)
Zea mays (ZEAMX) [5]
  Pre-emergence Test ZEAMX, percentage damage caused to the plant (five-point scale): 0
[6]; 250 g/Ha
  percentage damage caused to the plant, AMARE (five-point scale): 1 (1=0-20%)
[6]; 1000 g/ha
  percentage damage caused to the plant, AMARE (five-point scale): 0
Setaria faberi (SETFA) [7]
  Pre-emergence Test SETFA, percentage damage caused to the plant (five-point scale): 5 (5=81-100%)
[8]
  Pre-emergence Test IPOHE, percentage damage caused to the plant (five-point scale): 0
[9]
  Pre-emergence Test AMARE, percentage damage caused to the plant (five-point scale): 0
[10]
  Pre-emergence Test AMAPA, percentage damage caused to the plant (five-point scale): 1 (1=0-20%)
Zea mays (ZEAMX) [11]; 250 g/Ha
  percentage damage caused to the plant, ZEAMX (five-point scale): 0
Zea mays (ZEAMX) [11]; 1000 g/ha
  percentage damage caused to the plant, ZEAMX (five-point scale): 3 (3=41-60%)
[12]; 250 g/Ha
  percentage damage caused to the plant, IPOHE (five-point scale): 4 (4=61-80%)
[12]; 1000 g/ha
  percentage damage caused to the plant, IPOHE (five-point scale): 2 (2=21-40%)
